Test results from PubChem BioAssay (NCI).
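Method: 48-hour compound exposure of cells in 96-well plates, five concentrations, linear interpolation of endpoints. TGI marks complete inhibition of growth.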

Tests used:
Experiment in all cases: NCI anticancer screen, dose series, 48 h
[1] = test system: 786-0 renal
[2] = test system: A498 renal
[3] = test system: A549 NSCLC
[4] = test system: ACHN renal
[5] = test system: BT-549 breast
[6] = test system: CAKI-1 renal
[7] = test system: CCRF-CEM leukemia
[8] = test system: COLO 205 colon
[9] = test system: DU-145 prostate
[10] = test system: EKVX NSCLC
[11] = test system: HCC-2998 colon
[12] = test system: HCT-116 colon
[13] = test system: HCT-15 colon
[14] = test system: HL-60(TB) leukemia
[15] = test system: HOP-62 NSCLC
[16] = test system: HOP-92 NSCLC
[17] = test system: HS 578T breast
[18] = test system: HT29 colon
[19] = test system: K-562 leukemia
[20] = test system: KM12 colon
[21] = test system: LOX IMVI melanoma
[22] = test system: M14 melanoma
[23] = test system: MALME-3M melanoma
[24] = test system: MCF7 breast
[25] = test system: MDA-MB-231 breast
[26] = test system: MDA-MB-435
[27] = test system: MDA-N
[28] = test system: MOLT-4 leukemia
[29] = test system: NCI-H226 lung
[30] = test system: NCI-H23 lung
[31] = test system: NCI-H460 lung
[32] = test system: NCI-H522 lung
[33] = test system: NCI/ADR-RES ovarian
[34] = test system: OVCAR-3 ovarian
[35] = test system: OVCAR-4 ovarian
[36] = test system: OVCAR-5 ovarian
[37] = test system: OVCAR-8 ovarian
[38] = test system: PC-3 prostate
[39] = test system: RPMI-8226 leukemia
[40] = test system: RXF 393 renal
[41] = test system: SF-268 CNS
[42] = test system: SF-295 CNS
[43] = test system: SF-539 CNS
[44] = test system: SK-MEL-2 melanoma
[45] = test system: SK-MEL-28 melanoma
[46] = test system: SK-MEL-5 melanoma
[47] = test system: SK-OV-3 ovarian
[48] = test system: SN12C renal
[49] = test system: SNB-19 CNS
[50] = test system: SNB-75 CNS
[51] = test system: SR leukemia
[52] = test system: SW-620 colon
[53] = test system: T-47D breast
[54] = test system: TK-10 renal
[55] = test system: U251 CNS
[56] = test system: UACC-257 melanoma
[57] = test system: UACC-62 melanoma
[58] = test system: UO-31 renal
[59] = test system: IGROV1 ovarian

Question: `C[C@]12CCC(=O)[C@@H](CCC3=CC(=O)C=CC3=O)[C@@H]1CCC2=O` was tested. Which TGI [1] did it give?
Answer: Its TGI is 41.1 µM.

Question: And the TGI [2]?
Answer: The TGI was 39.6 µM.

Question: What about the TGI [3] of the same compound?
Answer: The TGI was over 54.5 µM.

Question: And the TGI [4]?
Answer: The TGI was 32.5 µM.

Question: What about the TGI [5] of the same compound?
Answer: Its TGI is 30.2 µM.

Question: And the TGI [6]?
Answer: The TGI was 27.7 µM.

Question: What about the TGI [7] of the same compound?
Answer: The TGI was over 100 µM.

Question: What about the TGI [8] of the same compound?
Answer: Its TGI is 31.2 µM.

Question: What about the TGI [9] of the same compound?
Answer: The TGI was 40.8 µM.

Question: What about the TGI [10] of the same compound?
Answer: The TGI was 47.5 µM.

Question: What about the TGI [11] of the same compound?
Answer: Its TGI is 31.4 µM.

Question: What about the TGI [12] of the same compound?
Answer: The TGI was over 50.5 µM.

Question: What about the TGI [13] of the same compound?
Answer: Its TGI is over 31.6 µM.

Question: What about the TGI [14] of the same compound?
Answer: The TGI was 39.1 µM.

Question: What about the TGI [15] of the same compound?
Answer: Its TGI is over 100 µM.

Question: And the TGI [16]?
Answer: Its TGI is over 100 µM.

Question: What about the TGI [17] of the same compound?
Answer: The TGI was 43.6 µM.

Question: And the TGI [18]?
Answer: The TGI was 82.2 µM.

Question: What about the TGI [19] of the same compound?
Answer: Its TGI is over 100 µM.

Question: What about the TGI [20] of the same compound?
Answer: Its TGI is 32 µM.

Question: What about the TGI [21] of the same compound?
Answer: The TGI was 39.3 µM.

Question: What about the TGI [22] of the same compound?
Answer: Its TGI is 59.1 µM.

Question: What about the TGI [23] of the same compound?
Answer: The TGI was 37.9 µM.

Question: And the TGI [24]?
Answer: Its TGI is 37.2 µM.

Question: What about the TGI [25] of the same compound?
Answer: Its TGI is 49.2 µM.

Question: What about the TGI [26] of the same compound?
Answer: The TGI was over 56.2 µM.

Question: And the TGI [27]?
Answer: Its TGI is over 52.8 µM.

Question: What about the TGI [28] of the same compound?
Answer: The TGI was over 100 µM.

Question: And the TGI [29]?
Answer: Its TGI is 57.3 µM.

Question: What about the TGI [30] of the same compound?
Answer: Its TGI is 38.2 µM.

Question: And the TGI [31]?
Answer: Its TGI is 31.4 µM.

Question: And the TGI [32]?
Answer: Its TGI is 5.64 µM.

Question: And the TGI [33]?
Answer: The TGI was over 100 µM.

Question: What about the TGI [34] of the same compound?
Answer: The TGI was 36 µM.

Question: What about the TGI [35] of the same compound?
Answer: The TGI was 53.2 µM.

Question: And the TGI [36]?
Answer: The TGI was over 75.1 µM.

Question: And the TGI [37]?
Answer: Its TGI is over 69.5 µM.

Question: What about the TGI [38] of the same compound?
Answer: The TGI was 27.5 µM.

Question: And the TGI [39]?
Answer: Its TGI is over 100 µM.

Question: What about the TGI [40] of the same compound?
Answer: Its TGI is 5.43 µM.

Question: What about the TGI [41] of the same compound?
Answer: The TGI was 39.5 µM.

Question: What about the TGI [42] of the same compound?
Answer: Its TGI is 36.7 µM.

Question: And the TGI [43]?
Answer: Its TGI is 35.7 µM.

Question: And the TGI [44]?
Answer: Its TGI is 27.1 µM.

Question: And the TGI [45]?
Answer: Its TGI is 37.1 µM.

Question: What about the TGI [46] of the same compound?
Answer: The TGI was 20.7 µM.

Question: And the TGI [47]?
Answer: The TGI was 63.9 µM.

Question: What about the TGI [48] of the same compound?
Answer: Its TGI is over 100 µM.

Question: And the TGI [49]?
Answer: Its TGI is over 100 µM.

Question: What about the TGI [50] of the same compound?
Answer: Its TGI is 25.8 µM.

Question: What about the TGI [51] of the same compound?
Answer: The TGI was over 100 µM.

Question: What about the TGI [52] of the same compound?
Answer: The TGI was over 58.7 µM.

Question: And the TGI [53]?
Answer: Its TGI is over 81.7 µM.

Question: What about the TGI [54] of the same compound?
Answer: Its TGI is 30.4 µM.

Question: What about the TGI [55] of the same compound?
Answer: The TGI was over 47.3 µM.

Question: And the TGI [56]?
Answer: The TGI was 39 µM.

Question: And the TGI [57]?
Answer: The TGI was 44.1 µM.

Question: What about the TGI [58] of the same compound?
Answer: The TGI was 31.1 µM.

Question: Which results are given for `O=c1nc2c(c(-c3ccc(Br)cc3)[nH]1)COC/C2=C\c1ccc(Br)cc1`?
Answer: TGI [1]: > 50 µM; TGI [2]: > 50 µM; TGI [4]: > 50 µM; TGI [5]: > 50 µM; TGI [6]: > 50 µM; TGI [7]: > 50 µM; TGI [8]: > 50 µM; TGI [9]: > 50 µM; TGI [10]: > 50 µM; TGI [11]: > 50 µM; TGI [12]: > 50 µM; TGI [13]: > 50 µM; TGI [14]: > 50 µM; TGI [15]: > 50 µM; TGI [16]: > 50 µM; TGI [17]: > 50 µM; TGI [18]: > 50 µM; TGI [59]: > 50 µM; TGI [19]: > 50 µM; TGI [20]: > 50 µM; TGI [21]: > 50 µM; TGI [22]: > 50 µM; TGI [23]: > 50 µM; TGI [24]: > 50 µM; TGI [25]: > 50 µM; TGI [26]: > 50 µM; TGI [27]: > 50 µM; TGI [28]: > 50 µM; TGI [29]: > 50 µM; TGI [30]: > 50 µM; TGI [31]: > 50 µM; TGI [32]: > 50 µM; TGI [33]: > 50 µM; TGI [34]: > 50 µM; TGI [35]: > 50 µM; TGI [36]: > 50 µM; TGI [37]: > 50 µM; TGI [38]: > 50 µM; TGI [39]: > 50 µM; TGI [40]: > 50 µM; TGI [41]: > 50 µM; TGI [42]: > 50 µM; TGI [43]: > 50 µM; TGI [44]: > 50 µM; TGI [45]: > 50 µM; TGI [46]: > 50 µM; TGI [47]: > 50 µM; TGI [48]: > 50 µM; TGI [49]: > 50 µM; TGI [50]: > 50 µM; TGI [52]: > 50 µM; TGI [53]: > 50 µM; TGI [54]: > 50 µM; TGI [55]: > 50 µM; TGI [56]: > 50 µM; TGI [57]: > 50 µM; TGI [58]: > 50 µM
